Legend:
[1] = 101.33 kPa, Liquid; for viscosity: Capillary tube (Ostwald / Ubbelohde) method; for mass density: Pycnometric method; for speed of sound: Sing-around technique in a fixed-path interferometer
[2] = xn = mol fraction of the nth substance listed; details: 101 kPa, Liquid; for viscosity: Capillary tube (Ostwald / Ubbelohde) method; for mass density: Pycnometric method; for speed of sound: Sing-around technique in a fixed-path interferometer

OCCO [1,2-ethanediol]
[1]
Details | mass density [kg/m3] | speed of sound [m/s] | viscosity [mPa·s]
298.15 K | 1106.3 | 1666 | 16.39
308.15 K | – | – | 10.77
318.15 K | – | – | 7.703

OCCO [1,2-ethanediol] + CN(C)C=O
[2], x1 = 0.5408
Details | mass density [kg/m3] | speed of sound [m/s] | viscosity [mPa·s]
298.15 K | 1024.8 | 1584.4 | 3.065
308.15 K | 1016.8 | – | 2.453
318.15 K | 1008.2 | – | 1.96

OCCO [1,2-ethanediol] + C[S+](C)[O-]
[2], x1 = 0.5573
Details | mass density [kg/m3] | speed of sound [m/s] | viscosity [mPa·s]
298.15 K | 1108.5 | 1617.3 | 5.195
308.15 K | 1098.9 | – | 3.901
318.15 K | 1089.6 | – | 3.108

C1COCCO1 [1,4-dioxane]
[1]
Details | mass density [kg/m3] | speed of sound [m/s] | viscosity [mPa·s]
298.15 K | 1027.3 | 1344 | 1.224
308.15 K | 1016 | – | 0.9268
318.15 K | 1005.6 | – | 0.7991

C1COCCO1 [1,4-dioxane] + OCCO
[2], x2 = 0.5867
Details | mass density [kg/m3] | speed of sound [m/s] | viscosity [mPa·s]
298.15 K | 1070.9 | 1519.2 | 4.386
308.15 K | 1060.4 | – | 3.36
318.15 K | 1050.9 | – | 2.661

C[S+](C)[O-] [dimethyl sulfoxide]
[1]
Details | mass density [kg/m3] | speed of sound [m/s] | viscosity [mPa·s]
298.15 K | 1095.4 | 1493 | 2.042
308.15 K | 1085.9 | – | 1.568
318.15 K | 1076.7 | – | 1.485

CN(C)C=O [dimethylformamide]
[1]
Details | mass density [kg/m3] | speed of sound [m/s] | viscosity [mPa·s]
298.15 K | 946.1 | 1465 | 0.8586
308.15 K | 939.9 | – | 0.7763
318.15 K | 931.6 | – | 0.7125

C1CCOC1 [tetrahydrofuran]
[1]
Details | mass density [kg/m3] | speed of sound [m/s] | viscosity [mPa·s]
298.15 K | 880.7 | 1279 | 0.463
308.15 K | 871.2 | – | 0.4277
318.15 K | 861.4 | – | 0.3902

C1CCOC1 [tetrahydrofuran] + OCCO
[2], x2 = 0.5374
Details | mass density [kg/m3] | speed of sound [m/s] | viscosity [mPa·s]
298.15 K | 984.5 | 1436.8 | 2.509
308.15 K | 974.1 | – | 1.866
318.15 K | 964.9 | – | 1.558

O [water]
[1]
Details | mass density [kg/m3] | speed of sound [m/s] | viscosity [mPa·s]
298.15 K | – | 1498 | 0.8904
308.15 K | 994.1 | – | 0.7194
318.15 K | 990.3 | – | 0.596
